{
  "source": "patent US20220088195A1",
  "about": "“Prevention or mitigation of T-cell bispecific antibody-related adverse effects” (Hoffmann-La Roche Inc., priority 2020, published 2022)",
  "type_in_all_cases": "cell-based, human",
  "key": {"[1]": {"tested_on": "IFN-γ, TNF-α and IL-2 release", "assay": "Cytokine release in SKM-1 killing assay with HLA-A2 WT-1-TCB, dasatinib added after 24 hours (Luminex)", "settings": "48 hours; 100 nM dasatinib added at 24 hours", "experimental": "FIG. 3. In vitro killing assay set-up and timelines. PBMCs were co-cultured with SKM-1 target cells (E:T=10:1) and 10 nM HLA-A2 WT-1-TCB. Dasatinib (100 nM) was added after 24 hours of activation. PBMCs were labelled with CellTrace™ Violet (CTV) to allow T cell proliferation assessment.\nFIG. 5. Cytokine release. Supernatants were collected from the assay of FIG. 3 at 24h and 48h, and cytokines (IFN-γ (A), TNF-α (B) and IL-2 (C)) measured using a multiplex kit (Luminex). Mean+/−SD of 3 donors.\nTo evaluate if dasatinib could act as a rapid and potent inhibitor of activated T cells, we first stimulated PBMCs on SKM-1 tumor cells with HLA-A2 WT-1-TCB for 24 hours. We then supplemented these activated effector cells with 100 nM dasatinib (FIG. 3)."}, "MKN45 NLR target cells": {"tested_on": "MKN45 NLR target cells", "assay": "Reversibility killing assay with two and three stimulations (OFF/ON, ON/OFF/ON), MKN45 NLR + CEA-TCB, Incucyte", "experimental": "FIG. 16. In vitro killing assay set-up and timelines. PBMCs were stimulated on MKN45 NLR (E:T=10:1) target cells with 1 nM CEA-TCB for 96 hours. Activated PBMCs were washed and restimulated on new MKN45 NLR target cells (E:T=10:1) with 1 nM CEA-TCB in the presence of 25 nM dasatinib for 72 hours. Activated PBMCs were washed to remove dasatinib and restimulated on new MKN45 NLR target cells (E:T=10:1) with 1 nM CEA-TCB (“ON/OFF/ON”, see upper row of table), or vice versa (“OFF/ON/OFF”, see lower row of table). Killing was followed by Incucyte®.\nFIG. 17. Real time killing of MKN45 NLR target cells by CEA-TCB in the presence of 25 nM dasatinib (0-72 h) upon first stimulation and in the absence of 25 nM dasatinib (96-170 h) upon restimulation, in the assay of FIG. 16 (“OFF/ON”).\nFIG. 19. Real time killing of MKN45 NLR target cells by CEA-TCB in the assay of FIG. 16 (“ON/OFF/ON”).\nFIG. 21. CEA-TCB mediated target cell killing. (A) PBMCs were stimulated on MKN45 NLR (E:T=10:1) target cells with 1 nM CEA-TCB for 96 hours in the presence and absence of dasatinib. (B) Activated PBMCs were washed to remove dasatinib and restimulated on new MKN45 NLR target cells (E:T=10:1) with 1 nM CEA-TCB. Killing was followed by Incucyte®.\nWe then verified if dasatinib's effect is reversible upon its removal. Therefore we set-up a killing assay with two and three stimulations in the presence and absence of dasatinib and followed the killing kinetics using an Incucyte® system (FIG. 16). After each stimulation, effector cells were washed and re-stimulated on fresh MKN45 NLR target cells with 1 nM CEA TCB in the presence and absence of dasatinib allowing to mimic OFF/ON switch and ON/OFF/ON switch.\nLastly, we evaluated if the effect of dasatinib was reversible on activated T cells. Consequently, we supplemented the media with 25 nM dasatinib upon the second stimulation with 1 nM CEA-TCB to prevent killing from activated T cells and then removed the dasatinib upon third stimulation with 1 nM CEA-TCB to verify if killing would be restored. […] We concluded that the effect of dasatinib in the prevention of T cell activation and cytotoxicity is reversible.\nFor T-cell engaging antibodies, cytokine release peaks are higher upon the first treatment than after subsequent treatments. We were curious to see if low doses of dasatinib could prevent cytokine release while minimally affecting TCB-efficacy upon first stimulation. In killing assays as described in FIG. 16, the cytokine levels upon first treatment with 1 nM CEA-TCB in the presence of 6.25 nM and 12.5 nM dasatinib and upon second treatment with 1 nM CEA-TCB in the absence of dasatinib were measured in the supernatants. […] Its removal upon second stimulation may also balance the cytokine release and restore TCB-induced cytotoxicity due to the reversibility properties of dasatinib."}, "CD4+ and CD8+ T cells": {"tested_on": "CD4+ and CD8+ T cells", "assay": "CD19-TCB-induced T cell activation (CD69, CD25) in the SUDLH-8 assay", "settings": "100 nM dasatinib, 24 hrs; monohydrate", "experimental": "FIG. 28. […] The expression of CD69 (A) and CD25 (B) on CD4+ T cells was measured by flow cytometry at 24 hrs in the assay described in FIG. 26. Mean of n=3 donors+SD. One way ANOVA, Friedman test, p-value: 0.1234 (ns), 0.0332 (*), 0.0021 (**), 0.0001 (***), <0.0001 (****).\nFIG. 29. […] The expression of CD69 (A) and CD25 (B) on CD8+ T cells was measured by flow cytometry at 24 hrs in the assay described in FIG. 26. Mean of n=3 donors+SD. One way ANOVA, Friedman test, p-value: 0.1234 (ns), 0.0332 (*), 0.0021 (**), 0.0001 (***), <0.0001 (****).\n(§1) The killing of CTV labelled SUDLH-8 cells was measured by flow cytometry using a Live/Dead Near Infra Red (NIR) dye. […] The expression of CD69 and CD25 were measured on CD4+ (FIG. 28) and CD8+(FIG. 29) T cells by flow cytometry as a readout for T cell activation. […] Lastly, the cytokine levels were analyzed in the supernatants of the assay by Luminex to evaluate the effect of dasatinib on CD19-TCB-induced cytokine release (FIGS. 30 and 31)."}, "SUDLH-8 tumor cells": {"tested_on": "SUDLH-8 tumor cells", "assay": "Killing assay, PBMCs + CTV labelled SUDLH-8 cells + CD19-TCB, flow cytometry 24 hrs", "settings": "100 nM dasatinib, monohydrate", "experimental": "FIG. 26. In vitro killing assay set-up. PBMCs were co-cultured with CellTrace™ Violet (CTV)-labelled SUDLH-8 tumor cells (E:T=10:1) and escalating concentrations of CD19-TCB in the presence and absence of 100 nM dasatinib.\nFIG. 27. […] The killing of SUDLH-8 tumor cells was measured by flow cytometry using a Live Dead Near InfraRed (NIR) dye allowing for exclusion of dead cells (24 hrs) in the assay described in FIG. 26. Mean of n=3 donors+SD. One way ANOVA, Friedman test, p-value: 0.1234 (ns), 0.0332 (*), 0.0021 (**), 0.0001 (***), <0.0001 (****).\nas §1"}},
  "note": "Entries after “also recorded” stand apart in the source; their conditions may differ.",
  "data": [
    {"smiles": "Cc1nc(Nc2ncc(C(=O)Nc3c(C)cccc3Cl)s2)cc(N2CCN(CCO)CC2)n1", "note": "[dasatinib, N-(2-chloro-6-methylphenyl)-2-[[6-[4-(2-hydroxyethyl)-1-piperazinyl]-2-methyl-4-pyrimidinyl]amino]-5-thiazole carboxamide monohydrate]", "values": [
      {"measurement": "release of IFN-γ, TNF-α and IL-2 from activated T cells", "setting": "[1]", "result": "rapidly prevented the release of cytokines"},
      {"measurement": "killing induced by 1 nM CEA-TCB during first stimulation", "setting": "MKN45 NLR target cells; 6.25 nM and 12.5 nM dasatinib", "result": "only partially inhibited the killing"},
      {"measurement": "killing of MKN45 NLR target cells (OFF/ON)", "setting": "MKN45 NLR target cells; 25 nM dasatinib during first stimulation, removed for second, 1 nM CEA TCB", "result": "killing inhibition which was then reversed upon dasatinib removal"},
      {"measurement": "killing of MKN45 cells (ON/OFF/ON)", "setting": "MKN45 NLR target cells; 25 nM dasatinib upon second stimulation, removed upon third, 1 nM CEA-TCB", "result": "inhibited with the addition of 25 nM upon second stimulation and restored upon third stimulation"},
      {"measurement": "killing upon removal of dasatinib during second stimulation", "setting": "MKN45 NLR target cells; after 6.25 nM and 12.5 nM dasatinib in first stimulation", "result": "killing was restored"},
      {"measurement": "CD19-TCB-induced CD4+ and CD8+ T cell activation (CD69, CD25)", "setting": "CD4+ and CD8+ T cells", "result": "prevents CD19-TCB-induced CD4+ T cell activation; also recorded: prevents CD19-TCB-induced CD8+ T cell activation; also recorded: prevented CD4+ and CD8+ T cell activation"},
      {"measurement": "killing of SUDLH-8 tumor cells by CD19-TCB", "setting": "SUDLH-8 tumor cells", "result": "prevented killing"}
    ]}
  ]
}
